In publication PMC3914891, “Pentacyclic Nitrofurans with In Vivo Efficacy and Activity against Nonreplicating Mycobacterium tuberculosis” (PLoS ONE, 2014):
Converted amounts (≈) assume the structure as drawn. Read-outs that look alike come from different tables or passages of the source. Marks after values point to notes of the source that are not given here.

Legend:
[1] = system: hypoxic M. tuberculosis strain H37Rv; assay: NRP bacteria under hypoxia (rapid anaerobic dormancy model); type: cell-based, Mycobacterium tuberculosis
[2] = system: M. tuberculosis strain H37Rv; assay: Checkerboard synergy assay; type: cell-based, Mycobacterium tuberculosis; details: for MIC: Mycobacterium tuberculosis, 168 h, read-out: MIC Alone
[3] = system: M. bovis strain BCG Pasteur; type: cell-based
[4] = system: M. tuberculosis Erdman; details: mouse, in vivo, po, 25 mg/kg
[5] = system: M. tuberculosis strain H37Rv (mid-log and nutrient-starved); assay: Nutrient starvation model of nonreplicating persisters; type: cell-based, Mycobacterium tuberculosis
[6] = system: M. ulcerans (ATCC 35840); assay: MIC by agar proportion method: M. ulcerans; type: cell-based; details: Mycobacterium ulcerans, ATCC35840, 672 h, read-out: Minimum Inhibitory Concentration, M. ulcerans
[7] = system: M. avium (ATCC 25291); assay: MIC, non-tuberculosis mycobacteria: M. avium; type: cell-based; details: Mycobacterium avium, ATCC25291, 168 h; broth dilution, visual inspection, 7 days; read-out: Minimum Inhibitory Concentration, M. avium
[8] = system: M. kansasii (ATCC 12478); assay: MIC, non-tuberculosis mycobacteria: M. kansasii; type: cell-based; details: Mycobacterium kansasii, ATCC12478, 168 h; broth dilution, visual inspection, 7 days; read-out: Minimum Inhibitory Concentration, M. kansasii
[9] = system: M. abscessus (ATCC 19977); assay: MIC, non-tuberculosis mycobacteria: M. abscessus; type: cell-based; details: Mycobacteroides abscessus, ATCC19977, 72 h, read-out: Minimum Inhibitory Concentration, M. abscessus
[10] = system: M. fortuitum (ATCC 6841); assay: MIC, non-tuberculosis mycobacteria: M. fortuitum; type: cell-based; details: Mycolicibacterium fortuitum, ATCC6841, 72 h; broth dilution, visual inspection, 3 days; read-out: Minimum Inhibitory Concentration, M. fortuitum
[11] = in vitro; details: mouse, plasma
[12] = system: M. tuberculosis; assay: MIC determination, microbroth dilution, M. tuberculosis; type: cell-based, Mycobacterium tuberculosis
[13] = system: Burkholderia cepacia (ATCC 25416); assay: MIC, spectrum of activity: B.c.; type: cell-based; details: ATCC25416, read-out: Minimum Inhibitory Concentration, B.c.
[14] = system: E. coli K12 ∆tolC; type: cell-based; details: E. coli K12 ∆tolC (efflux pump deficient)
[15] = system: Bacillus subtilis (ATCC 23857); assay: MIC, spectrum of activity: B.s.; type: cell-based; details: ATCC23857, read-out: Minimum Inhibitory Concentration, B.s.
[16] = system: Staphylococcus aureus (NRS70); assay: MIC, spectrum of activity: MRSA; type: cell-based; details: read-out: Minimum Inhibitory Concentration, MRSA
[17] = system: Staphylococcus aureus (ATCC 29213); assay: MIC, spectrum of activity: S.a.; type: cell-based; details: ATCC29213, read-out: Minimum Inhibitory Concentration, S.a
[18] = in vitro; details: mouse, microsomes
[19] = rats; IV 10 mg/kg and oral 100 mg/kg
[20] = system: Streptococcus pneumoniae (R6); assay: MIC, spectrum of activity: S.pn; type: cell-based; details: read-out: Minimum Inhibitory Concentration, S. Pn.
[21] = male, Sprague-Dawley, rat, in vivo
[22] = system: Stenotrophomonas maltophilia (ATCC 13637); assay: MIC, spectrum of activity: S.m.; type: cell-based; details: ATCC13637, read-out: Minimum Inhibitory Concentration, S.m.
[23] = physchem; details: pH 7.4, aqueous buffer
[24] = system: Vero cells; assay: In vitro cytotoxicity against Vero cells
[25] = In vitro cytotoxicity against Vero cells; details: African green monkey, Vero cells (kidney epithelial cells, ATCC CCL-81)
[26] = in vivo; details: male, Sprague-Dawley, rat
[27] = system: Streptococcus pyogenes (ATCC 700294); assay: MIC, spectrum of activity: S.py; type: cell-based; details: ATCC700294, read-out: Minimum Inhibitory Concentration, S. Py.
[28] = system: Bacillus anthracis sterne 34F2; assay: microbe, parasite or virus in culture; type: cell-based; details: STERNE34F2, read-out: Minimum Inhibitory Concentration, B.a.
[29] = system: Enterococcus faecalis (ATCC 33186); assay: MIC, spectrum of activity: E.f.; type: cell-based; details: ATCC33186, read-out: Minimum Inhibitory Concentration, E.f.
[30] = system: Escherichia coli (ATCC 700926); assay: MIC, spectrum of activity: E.c.; type: cell-based; details: ATCC700926, read-out: Minimum Inhibitory Concentration, E.c.
[31] = system: Vero cells; details: cited from earlier work
[32] = mouse plasma; ref footnote g, values reported in reference (number not given); cited from earlier work
[33] = system: H37Rv-wt; assay: microbe, parasite or virus in culture; type: cell-based, M. tuberculosis; details: Mycobacterium tuberculosis
[34] = system: M. tuberculosis H37Rv; assay: Minimum bactericidal concentration determination; type: cell-based, Mycobacterium tuberculosis
[35] = Mycobacterium tuberculosis, 168 h; read-out: M. tb. MIC

Compound | % Growth vs. Control [1] | FICI with 9a [2] | MIC in presence of 9a [2] [µg/mL] | Type of Interaction [2] | MIC ([2]; H37RV) [µg/mL] | MIC [7] [µg/mL] | MIC [8] [µg/mL] | MIC [10] [µg/mL] | fraction unbound [11] | MIC [12, 35] [µg/mL] | MIC [13] [µg/mL] | Minimum Inhibitory Concentration, E.c. ΔtolC [14] [µg/mL] | MIC [15] [µg/mL] | MIC [16] [µg/mL] | MIC [17] [µg/mL] | half-life [18] [h] | MIC [20] [µg/mL] | MIC [22] [µg/mL] | solubility [23] [µg/mL] | Selective Index (Cytox/MIC) [24] | also measured
NNC(=O)c1ccncc1 [Isoniazid] | 29.1–49.1% | 0.52–2.00 | 0.01 to 0.02 | Indifference (key: Synergy: synergy (FICI ≤0.5); Indifference: indifference (FICI >0.5–4.0); Antagonism: antagonism (FICI >4.0)) | 0.02 |  |  |  |  |  |  |  |  |  |  |  |  |  |  |  | PAE [3]: 71.8 h; Log10CFU (SEM), lungs [4]: 4.60 (0.21) Log10CFU; Log10CFU (SEM), spleen [4]: 2.61 (0.09) Log10CFU; fold less active against nutrient starved bacteria than against actively growing culture [5]: 7 fold; reduction in viability (killing) of actively growing culture [5]: > 95%
CO[C@H]1/C=C/O[C@@]2(C)Oc3c(C)c(O)c4c(O)c(c(/C=N/N5CCN(C)CC5)c(O)c4c3C2=O)NC(=O)/C(C)=C\C=C\[C@H](C)[C@H](O)[C@@H](C)[C@@H](O)[C@@H](C)[C@H](OC(C)=O)[C@@H]1C [Rifampin] | <0.1% | 0.38 | 0.003 | Synergy (key: Synergy: synergy (FICI ≤0.5); Indifference: indifference (FICI >0.5–4.0); Antagonism: antagonism (FICI >4.0)) | 0.02 to 0.05 | 6.3 (≈ 7.66 µM) | 0.39 (≈ 0.474 µM) | 1.56 (≈ 1.9 µM) |  |  |  |  |  |  |  |  |  |  |  |  | MIC [6]: 0.1 to 0.4 µg/mL (≈ 0.122 to 0.486 µM); fold decrease of MIC in the presence of 9a [2]: ~10 fold; MIC ([9]; broth dilution, visual inspection, 3 days, range of at least two independent experiments): 50 µg/mL (≈ 60.8 µM)
O=[N+]([O-])c1ccc(C2=NOC(c3ccc(N4CCC(Oc5ccc(OC(F)(F)F)cc5)CC4)c(F)c3)C2)o1 (stereo not drawn) [Compound 9c, 5-(3-Fluoro-4-(4-(4-(trifluoromethoxy)phenoxy)piperidin-1-yl)phenyl)-3-(5-nitrofuran-2-yl)-4,5-dihydroisoxazole] |  |  |  |  |  |  |  |  | 0.024 | 0.001 | > 200 | >200 | 200 (≈ 374 µM) | > 200 | > 200 | 7.04 | > 200 | > 200 | 1.9 (≈ 3.55 µM) | 21400 | Toxicity by intravenous and oral dosing [19]: Central nervous system toxicity (seizures); fe (fraction excreted unchanged in urine) ([21]; iv, 10 mg/kg): 0.02 (0.00) %; Cmin,24 h ([21]; po, 100 mg/kg): 0.02 (0.02) mg/L; IC50 [25]: 21.4 µg/mL (≈ 40 µM); Vd ([26]; iv, 10 mg/kg): 1.69 L/kg; clearance ([26]; iv, 10 mg/kg): 6.83 mL/min/kg; half-life ([26]; iv, 10 mg/kg): 5.6 h; AUC(0-inf) ([26]; po, 100 mg/kg): 1610 ng·h/mL; Cmax ([26]; po, 100 mg/kg): 150 ng/mL; bioavailability ([26]; po, 100 mg/kg): 0.83%; MIC [27]: 200 µg/mL (≈ 374 µM); MIC [28]: 12.5 µg/mL (≈ 23.3 µM); MIC [29]: > 200 µg/mL; MIC [30]: > 200 µg/mL
O=[N+]([O-])c1ccc(C2=NOC(c3ccc(N4CCOCC4)cc3)C2)o1 (stereo not drawn) [Compound 2] |  |  |  |  |  |  |  |  |  |  |  |  |  |  |  |  |  |  |  | 483 | MIC ([12]; Mycobacterium tuberculosis, 168 h, read-out: M. tb. MIC): 0.006 µg/mL; Solubility (pH 7.4): 9.9 µg/mL; Cytotoxicity IC50 [31]: 2.9 ^g µg/mL; Plasma Protein binding [32]: 96.4 ^g %
O=[N+]([O-])c1cn2c(n1)OC[C@@H](OCc1ccc(OC(F)(F)F)cc1)C2 [PA-824] | <0.1% |  | 0.01 to 0.02 |  |  | > 200 | 3.1 to 12.5 (≈ 8.63 to 34.8 µM) | > 200 | 0.071 | 0.39 | > 200 | >200 | 200 (≈ 557 µM) | > 200 | > 200 | 8.12 | > 200 | > 200 | 8.5 (≈ 23.7 µM) | 178 | MIC ([12]; Mycobacterium tuberculosis; M. tuberculosis; […]; read-out: MIC): > 1 µM; MIC ([6]; agar proportion method, 4 weeks): 3.1 to 25 µg/mL (≈ 8.63 to 69.6 µM); killing of hypoxic bacilli ([1]; 10 µg/mL, NRP-2 bacilli): > 99.9%; MIC ([2]; checkerboard, H37Rv, 7 days): 0.2 to 0.8 µg/mL; fold decrease of MIC in the presence of 9a ([2]; checkerboard, H37Rv): ~10 fold; Type of Interaction ([2]; interaction of the treatment with 9a): Synergy (synergy (FICI ≤0.5)); MIC [33]: 0.1 µg/mL (≈ 0.278 µM); MBC [34]: >6; Classification ([34]; cidal or static from MBC versus MIC): Static (static (MBC/MIC >4)); MIC [9]: > 200 µg/mL; IC50 [25]: 69.4 µg/mL (≈ 193 µM); MIC [27]: > 200 µg/mL; MIC [28]: > 200 µg/mL; MIC [29]: > 200 µg/mL; MIC [30]: > 200 µg/mL
